Measurements taken from US7241789B2, “Substituted indoles and their use as integrin antagonists” (3-Dimensional Pharmaceutical, Inc., priority 2001, dated 2007).

Each molecule was assayed against T1, human αvβ3 (Homo sapiens, UniProt P05106+P06756) (assay: αvβ3-vitronectin Assay). Settings: inhibition of binding of biotinylated human vitronectin to plate-coated human αvβ3, ELISA, room temperature.
T1 construct: purchased Chemicon CC1019
Description: The assay is based on the method of Dennis (Dennis, M. S., et al., Proteins 15: […] (1993)). Costar 9018 flat-bottom 96-well ELISA plates were coated overnight at […] with 100 μL/well of 10 μg/mL human fibrinogen (Calbiochem 341578) in 20 mM Tris-HCl pH 7.5, 150 mM NaCl, 2 mM CaCl2, 0.02% NaN3 (TAC buffer), and blocked for 1 hr at 37° C. with 150 μL/well of TAC buffer containing 0.05% Tween 20 and 1% bovine serum albumin (TACTB buffer). After washing 3 times with 200 μL/well of 10 mM Na2 HPO4 pH 7.5, 150 mM NaCl, 0.01% Tween 20 (PBST buffer), controls or test compound (0.027–20.0 μM) were mixed with 40 μg/mL human GPIIbIIIa (Enzyme Research Laboratories) in TACTB buffer, and 100 μL/well of these solutions were incubated for 1 hr at 37° C. The plate was then washed 5 times with PBST buffer, and 100 μL/well of a monoclonal anti-GPIIbIIIa antibody in TACTB buffer (1 μg/mL, Enzyme Research Laboratories MabGP2b3a) was incubated at 37° C. for 1 hr. After washing (5 times with PBST buffer), 100 μL/well of goat anti-mouse IgG conjugated to horseradish peroxidase (Kirkegaard & Perry 14–23–06) was incubated at 37° C. for 1 hr (25 ng/mL in PBST buffer), followed by a 6-fold PBST buffer wash. The plate was developed by adding 100 μL/well of 0.67 mg o-phenylenediamine dihydrochloride per mL of 0.012% H2O2, 22 mM sodium citrate, 50 mM sodium phosphate, pH 5.0 at room temperature. The reaction was stopped with 50 μL/well of 2M H2SO4, and the absorbence at 492 nm was recorded. Percent (%) inhibition was calculated from the average of three separate determinations relative to buffer controls (no test compound added), and a four parameter fit (Marquardt, D. W., J. Soc. Indust. Appl. Math. 11:431–441 (1963)) was used to estimate the half maximal inhibition concentration (IC50).
The assay was based on the method of Niiya (Niiya, K., et al., Blood 70:475–483 (1987)). Costar 9018 flat-bottom 96-well ELISA plates were coated overnight at room temperature with 100 μL/well of 0.4 μg/mL human αvβ3 (Chemicon CC1019) in TS buffer (20 mM Tris-HCl pH 7.5, 150 mM NaCl, 1 mM CaCl2, 1 mM MgCl2, 1 mM MnCl2). All subsequent steps were performed at room temperature. Plates were blocked for 2 hr with 150 μL/well of TS buffer containing 1% BSA (TSB buffer), and washed 3 times with 200 μL/well of PBST buffer. Controls or test compound (0.0001–20.0 μM) were mixed with 1 μg/mL of human vitronectin (Chemicon CCO80) that had been biotinylated in-house with sulfo-NHS-LC-LC-biotin (Pierce 21338, 20:1 molar ratio), and 100 μL/well of these solutions (in TSB buffer) were incubated for 2 hr. The plate was then washed 5 times with PBST buffer, and 100 μL/well of 0.25 μg/mL NeutrAvidin-horseradish peroxidase conjugate (Pierce 31001) in TSB buffer was incubated for 1 hr. Following a 5-fold PBST buffer wash, the plate was developed and results were calculated as described for the fibrinogen-IIbIIIa assay.

T1 sequence (P06756 31-889 limits assumed): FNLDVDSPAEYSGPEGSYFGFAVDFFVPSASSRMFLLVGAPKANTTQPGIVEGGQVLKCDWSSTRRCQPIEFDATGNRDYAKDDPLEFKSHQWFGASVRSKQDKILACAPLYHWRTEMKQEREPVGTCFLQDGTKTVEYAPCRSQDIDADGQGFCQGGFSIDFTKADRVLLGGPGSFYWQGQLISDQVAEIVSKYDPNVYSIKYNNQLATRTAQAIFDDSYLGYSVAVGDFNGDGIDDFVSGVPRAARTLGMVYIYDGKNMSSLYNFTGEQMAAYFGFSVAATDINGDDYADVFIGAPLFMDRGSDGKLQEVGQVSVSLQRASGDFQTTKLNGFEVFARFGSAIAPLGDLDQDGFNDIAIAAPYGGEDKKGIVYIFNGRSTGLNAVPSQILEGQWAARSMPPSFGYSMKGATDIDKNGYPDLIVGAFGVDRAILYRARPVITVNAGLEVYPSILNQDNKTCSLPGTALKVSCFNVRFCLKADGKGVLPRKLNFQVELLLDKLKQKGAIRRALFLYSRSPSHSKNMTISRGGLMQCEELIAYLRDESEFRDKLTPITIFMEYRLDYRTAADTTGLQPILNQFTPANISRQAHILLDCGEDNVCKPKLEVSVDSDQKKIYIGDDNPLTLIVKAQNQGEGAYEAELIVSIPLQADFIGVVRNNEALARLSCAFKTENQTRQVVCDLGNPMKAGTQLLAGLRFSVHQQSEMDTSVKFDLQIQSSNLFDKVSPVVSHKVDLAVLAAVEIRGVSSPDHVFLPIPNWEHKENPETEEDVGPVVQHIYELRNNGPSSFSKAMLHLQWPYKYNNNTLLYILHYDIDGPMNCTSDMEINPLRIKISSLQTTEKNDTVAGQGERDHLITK
T1 sequence (P06756 891-1048 limits assumed): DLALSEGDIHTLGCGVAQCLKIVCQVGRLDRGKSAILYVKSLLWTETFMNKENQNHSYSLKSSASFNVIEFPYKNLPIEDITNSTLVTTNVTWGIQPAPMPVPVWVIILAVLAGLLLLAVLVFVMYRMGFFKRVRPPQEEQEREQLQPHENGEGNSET
T1 sequence (P05106 27-788): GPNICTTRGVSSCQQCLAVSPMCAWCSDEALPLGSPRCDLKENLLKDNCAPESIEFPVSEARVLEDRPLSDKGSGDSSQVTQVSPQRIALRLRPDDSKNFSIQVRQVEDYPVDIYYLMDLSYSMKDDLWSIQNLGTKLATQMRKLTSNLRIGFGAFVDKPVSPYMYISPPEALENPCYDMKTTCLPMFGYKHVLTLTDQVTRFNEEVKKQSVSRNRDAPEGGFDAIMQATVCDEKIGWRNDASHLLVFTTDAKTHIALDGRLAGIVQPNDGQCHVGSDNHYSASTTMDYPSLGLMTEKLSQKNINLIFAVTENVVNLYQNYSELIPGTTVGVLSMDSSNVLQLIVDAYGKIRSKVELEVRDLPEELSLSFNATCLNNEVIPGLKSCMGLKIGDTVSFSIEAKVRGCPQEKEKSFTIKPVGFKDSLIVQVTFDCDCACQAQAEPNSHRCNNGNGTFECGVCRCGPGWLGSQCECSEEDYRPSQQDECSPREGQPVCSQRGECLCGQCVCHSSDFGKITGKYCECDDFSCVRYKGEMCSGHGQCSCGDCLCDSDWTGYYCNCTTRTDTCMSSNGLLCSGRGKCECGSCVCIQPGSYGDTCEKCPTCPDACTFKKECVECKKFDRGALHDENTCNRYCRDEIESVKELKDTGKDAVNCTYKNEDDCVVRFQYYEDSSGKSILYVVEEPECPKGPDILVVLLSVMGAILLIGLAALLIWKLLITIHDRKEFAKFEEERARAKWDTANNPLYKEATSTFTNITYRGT

Molecule | IC50 [nM]
3-{5-[3-(2-Pyridylamino)propoxy]indolyl}propanoic acid ammonium salt [Example 1] | 500
O=C(O)[C@@H]1C[C@H]1n1ccc2cc(OCCCNc3ccccn3)ccc21 (relative stereo) [Example 4] | 670
CNc1cccc(CCOc2ccc3c(ccn3CCC(=O)O)c2)n1 [Example 5, 3-(5-{2-[6-(Methylamino)-2-pyridyl]ethoxy}indolyl)propanoic acid] | 50
CC(Cn1ccc2cc(OCCCNc3ccccn3)ccc21)C(=O)O (stereo not shown) [Example 7, 2-Methyl-3-{5-[3-(2-pyridylamino)propoxy]indolyl}propanoic acid] | 500

The next lines start with the values.

IC50 [nM] | Molecule
4 | CCCC(CC(=O)O)n1ccc2cc(OCCc3ccc4c(n3)NCCC4)ccc21 (stereo not shown) [Example 14, 3-{5-[2-(5,6,7,8-Tetrahydro-[1,8]naphthyridin-2-yl)-ethoxy]-indol-1-yl}-hexanoic acid]
6 | O=C(O)CCn1ccc2cc(OCCc3ccc4c(n3)NCCC4)ccc21 [Example 15, 3-{5-[2-(5,6,7,8-Tetrahydro-[1,8]naphthyridin-2-yl)-ethoxy]-indol-1-yl}-propionic acid]
0.24 | O=C(O)CC(c1cccnc1)n1ccc2cc(OCCc3ccc4c(n3)NCCC4)ccc21 (stereo not shown) [Example 38, 3-Pyridin-3-yl-3-{5-[2-(5,6,7,8-tetrahydro-[1,8]naphthyridin-2-yl)-ethoxy]-indol-1-yl}-propionic acid]
